# Columns and labels:
# [1] = target: 5-hydroxytryptamine receptor 1D (Homo sapiens, UniProt P28221); settings: Compound concentration 10.0 uM
# [2] = target: 5-hydroxytryptamine receptor 1E (Homo sapiens) (UniProt P28566); settings: Compound concentration 10.0 uM
# [3] = target: Alpha-1D adrenergic receptor (Homo sapiens) (UniProt P25100); settings: Compound concentration 10.0 uM
# [4] = target: 5-hydroxytryptamine receptor 6 (Homo sapiens) (UniProt P50406); settings: Compound concentration 10.0 uM
# [5] = target: Alpha-2A adrenergic receptor (Homo sapiens) (UniProt P08913); settings: Compound concentration 10.0 uM
# [6] = target: 5-hydroxytryptamine receptor 2B (Homo sapiens, UniProt P41595); settings: Compound concentration 10.0 uM
# [7] = target: Alpha-2B adrenergic receptor (Homo sapiens) (UniProt P18089); settings: Compound concentration 10.0 uM
# [8] = target: Delta-type opioid receptor (Homo sapiens, UniProt P41143); settings: Compound concentration 10.0 uM
# Mu-type opioid receptor = Mu-type opioid receptor (Homo sapiens, UniProt P35372); settings: Compound concentration 10.0 uM
# [9] = target: 5-hydroxytryptamine receptor 2C (Homo sapiens) (UniProt P28335); settings: Compound concentration 10.0 uM
# [10] = target: Sodium-dependent serotonin transporter (Homo sapiens, UniProt P31645); settings: Compound concentration 10.0 uM
# [11] = target: T1, Sodium-dependent dopamine transporter (Homo sapiens, UniProt Q01959); experiment: GPCRScan assay: inhibition of DAT; design: radioligand conc. used [nm] 3.6 – 16.0, parental cells stable HEK
# [12] = target: T1, Sodium-dependent dopamine transporter; settings: Compound concentration 10.0 uM
# D(2) dopamine receptor = D(2) dopamine receptor (Homo sapiens, UniProt P14416); settings: Compound concentration 10.0 uM
# [13] = target: Alpha-2C adrenergic receptor (Homo sapiens) (UniProt P18825); settings: Compound concentration 10.0 uM
# [14] = AMPA receptor scintillation proximity binding assay; design: species or system Homo sapiens
# [15] = target: Glutamate receptor ionotropic, NMDA 2A (Homo sapiens, UniProt Q05586+Q12879); experiment: GluN2A-containing NMDA receptor (Ca2+ influx) assay (EC50)
# [16] = target: Sigma intracellular receptor 2 (Homo sapiens) (UniProt Q5BJF2); settings: Compound concentration 10.0 uM
# [17] = target: Histamine H4 receptor (Homo sapiens) (UniProt Q9H3N8); settings: Compound concentration 10.0 uM
# [18] = target: 5-hydroxytryptamine receptor 1B (Homo sapiens, UniProt P28222); settings: Compound concentration 10.0 uM
# [19] = target: D(4) dopamine receptor (Homo sapiens) (UniProt P21917); settings: Compound concentration 10.0 uM
# [20] = target: Beta-3 adrenergic receptor (Homo sapiens) (UniProt P13945); settings: Compound concentration 10.0 uM
# [21] = target: Sigma non-opioid intracellular receptor 1 (Homo sapiens) (UniProt Q99720); settings: Compound concentration 10.0 uM
# [22] = target: 5-hydroxytryptamine receptor 2A (Homo sapiens, UniProt P28223); settings: Compound concentration 10.0 uM
# [23] = target: Sodium-dependent noradrenaline transporter (Homo sapiens, UniProt P23975); settings: Compound concentration 10.0 uM
# [24] = target: 5-hydroxytryptamine receptor 3A (Homo sapiens) (UniProt P46098); settings: Compound concentration 10.0 uM
# [25] = target: GABA-A receptor; anion channel (Rattus norvegicus) (UniProt O09028+P15431+P18506+P18508+P19969+P20236+P23574+P23576+P28471+P28473+P30191+P62813+P63079+P63138+Q91ZM7+Q9ES14); settings: Compound concentration 10.0 uM
# Rattus norvegicus = species on record: Rattus norvegicus; settings: Compound concentration 10.0 uM
# D(1A) dopamine receptor = D(1A) dopamine receptor (Homo sapiens, UniProt P21728); settings: Compound concentration 10.0 uM
# [26] = target: Alpha-1B adrenergic receptor (Homo sapiens) (UniProt P35368); settings: Compound concentration 10.0 uM
# [27] = target: Muscarinic acetylcholine receptor M4 (Homo sapiens) (UniProt P08173); settings: Compound concentration 10.0 uM
# [28] = target: Kappa-type opioid receptor (Homo sapiens, UniProt P41145); settings: Compound concentration 10.0 uM
# [29] = target: Beta-1 adrenergic receptor (Homo sapiens, UniProt P08588); settings: Compound concentration 10.0 uM
# [30] = target: D(3) dopamine receptor (Homo sapiens) (UniProt P35462); settings: Compound concentration 10.0 uM
# [31] = target: 5-hydroxytryptamine receptor 5A (Homo sapiens) (UniProt P47898); settings: Compound concentration 10.0 uM
# [32] = target: Histamine H3 receptor (Homo sapiens) (UniProt Q9Y5N1); settings: Compound concentration 10.0 uM
# [33] = target: Muscarinic acetylcholine receptor M1 (Homo sapiens) (UniProt P11229); settings: Compound concentration 10.0 uM
# Histamine H2 receptor = Histamine H2 receptor (Homo sapiens, UniProt P25021); settings: Compound concentration 10.0 uM
# [34] = target: 5-hydroxytryptamine receptor 1A (Homo sapiens) (UniProt P08908); settings: Compound concentration 10.0 uM
# Histamine H1 receptor = Histamine H1 receptor (Homo sapiens, UniProt P35367); settings: Compound concentration 10.0 uM
# T1 sequence (Q01959 whole entry): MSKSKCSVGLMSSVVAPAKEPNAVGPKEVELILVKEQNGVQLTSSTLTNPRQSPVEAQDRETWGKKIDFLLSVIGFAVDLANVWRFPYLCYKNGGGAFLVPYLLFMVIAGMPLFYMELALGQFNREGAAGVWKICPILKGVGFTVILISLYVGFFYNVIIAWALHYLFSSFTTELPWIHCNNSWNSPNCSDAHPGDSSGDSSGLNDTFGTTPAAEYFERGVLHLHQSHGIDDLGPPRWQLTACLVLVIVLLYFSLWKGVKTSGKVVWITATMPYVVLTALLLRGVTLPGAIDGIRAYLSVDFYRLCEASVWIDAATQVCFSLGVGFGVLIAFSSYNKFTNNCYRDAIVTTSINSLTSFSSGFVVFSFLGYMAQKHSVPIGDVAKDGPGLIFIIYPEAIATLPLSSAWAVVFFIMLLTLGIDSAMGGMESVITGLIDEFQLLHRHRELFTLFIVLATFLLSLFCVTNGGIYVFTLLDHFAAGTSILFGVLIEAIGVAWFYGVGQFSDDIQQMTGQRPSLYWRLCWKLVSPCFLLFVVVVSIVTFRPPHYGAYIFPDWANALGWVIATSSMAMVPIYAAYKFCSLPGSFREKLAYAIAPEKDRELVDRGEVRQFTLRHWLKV
# Chain of D(2) dopamine receptor (P14416 whole entry): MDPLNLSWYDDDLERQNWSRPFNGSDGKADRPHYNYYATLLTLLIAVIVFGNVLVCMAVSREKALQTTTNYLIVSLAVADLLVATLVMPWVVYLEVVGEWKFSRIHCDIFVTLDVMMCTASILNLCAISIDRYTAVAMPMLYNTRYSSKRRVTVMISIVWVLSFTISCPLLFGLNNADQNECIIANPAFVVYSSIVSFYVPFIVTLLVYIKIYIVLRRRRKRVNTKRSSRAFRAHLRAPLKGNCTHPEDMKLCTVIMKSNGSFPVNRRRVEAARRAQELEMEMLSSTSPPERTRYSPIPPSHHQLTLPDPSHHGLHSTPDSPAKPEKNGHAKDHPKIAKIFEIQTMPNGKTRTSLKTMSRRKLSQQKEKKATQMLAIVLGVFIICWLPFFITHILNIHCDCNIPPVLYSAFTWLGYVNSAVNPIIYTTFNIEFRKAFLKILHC
# Chain of Alpha-2A adrenergic receptor (Homo sapiens) (P08913 whole entry): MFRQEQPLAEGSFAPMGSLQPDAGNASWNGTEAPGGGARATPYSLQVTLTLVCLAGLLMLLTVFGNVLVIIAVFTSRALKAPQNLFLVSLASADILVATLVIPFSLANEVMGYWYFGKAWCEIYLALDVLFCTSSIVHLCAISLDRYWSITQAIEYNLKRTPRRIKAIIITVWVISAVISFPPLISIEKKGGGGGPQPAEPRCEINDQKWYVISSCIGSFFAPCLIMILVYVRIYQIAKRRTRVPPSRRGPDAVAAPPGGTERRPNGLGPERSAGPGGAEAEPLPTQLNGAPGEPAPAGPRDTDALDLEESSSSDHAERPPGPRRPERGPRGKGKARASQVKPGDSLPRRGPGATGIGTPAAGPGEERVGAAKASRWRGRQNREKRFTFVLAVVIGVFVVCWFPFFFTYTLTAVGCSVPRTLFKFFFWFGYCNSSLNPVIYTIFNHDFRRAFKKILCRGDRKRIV
# Chain of Muscarinic acetylcholine receptor M1 (Homo sapiens) (P11229 whole entry): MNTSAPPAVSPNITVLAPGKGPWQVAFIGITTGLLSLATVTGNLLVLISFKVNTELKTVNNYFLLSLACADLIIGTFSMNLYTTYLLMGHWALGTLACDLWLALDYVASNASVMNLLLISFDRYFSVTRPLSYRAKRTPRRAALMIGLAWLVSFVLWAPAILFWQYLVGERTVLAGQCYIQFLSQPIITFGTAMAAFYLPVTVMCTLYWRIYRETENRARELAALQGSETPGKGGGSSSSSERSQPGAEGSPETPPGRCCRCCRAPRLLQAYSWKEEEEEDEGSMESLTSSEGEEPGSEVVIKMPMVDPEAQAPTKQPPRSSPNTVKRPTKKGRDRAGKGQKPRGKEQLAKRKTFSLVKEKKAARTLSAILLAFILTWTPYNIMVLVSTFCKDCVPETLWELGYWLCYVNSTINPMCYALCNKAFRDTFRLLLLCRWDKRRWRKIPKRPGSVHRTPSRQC
# Chain of 5-hydroxytryptamine receptor 3A (Homo sapiens) (P46098 whole entry): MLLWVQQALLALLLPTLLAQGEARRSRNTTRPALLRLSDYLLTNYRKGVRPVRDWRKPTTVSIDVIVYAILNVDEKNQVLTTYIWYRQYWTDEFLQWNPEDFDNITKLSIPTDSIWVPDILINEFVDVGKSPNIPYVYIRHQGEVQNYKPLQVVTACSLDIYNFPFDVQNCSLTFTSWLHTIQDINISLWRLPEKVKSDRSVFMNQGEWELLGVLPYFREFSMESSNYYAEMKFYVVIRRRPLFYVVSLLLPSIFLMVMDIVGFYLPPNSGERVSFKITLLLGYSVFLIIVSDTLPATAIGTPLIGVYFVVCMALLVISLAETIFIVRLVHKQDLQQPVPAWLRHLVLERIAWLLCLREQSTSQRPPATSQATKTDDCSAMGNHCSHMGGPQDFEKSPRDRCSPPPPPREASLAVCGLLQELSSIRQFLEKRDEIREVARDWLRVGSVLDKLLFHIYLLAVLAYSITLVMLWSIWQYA
# Chain of Sodium-dependent noradrenaline transporter (P23975 whole entry): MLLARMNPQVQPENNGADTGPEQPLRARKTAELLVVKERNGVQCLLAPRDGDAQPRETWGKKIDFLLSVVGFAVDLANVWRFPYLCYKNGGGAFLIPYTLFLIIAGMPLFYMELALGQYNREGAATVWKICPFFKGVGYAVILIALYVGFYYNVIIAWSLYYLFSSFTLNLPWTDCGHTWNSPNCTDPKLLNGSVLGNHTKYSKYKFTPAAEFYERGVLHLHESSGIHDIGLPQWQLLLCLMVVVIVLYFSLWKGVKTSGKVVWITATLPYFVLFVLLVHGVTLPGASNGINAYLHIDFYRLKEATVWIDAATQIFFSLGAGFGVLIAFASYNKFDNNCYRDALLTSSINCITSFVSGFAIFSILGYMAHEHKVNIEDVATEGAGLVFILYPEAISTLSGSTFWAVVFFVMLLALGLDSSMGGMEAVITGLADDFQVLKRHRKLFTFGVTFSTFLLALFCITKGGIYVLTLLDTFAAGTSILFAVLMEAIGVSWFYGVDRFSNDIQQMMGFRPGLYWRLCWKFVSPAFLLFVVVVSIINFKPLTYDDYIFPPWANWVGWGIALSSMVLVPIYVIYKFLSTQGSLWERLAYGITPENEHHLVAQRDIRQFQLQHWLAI
# Chain of Alpha-1D adrenergic receptor (Homo sapiens) (P25100 whole entry): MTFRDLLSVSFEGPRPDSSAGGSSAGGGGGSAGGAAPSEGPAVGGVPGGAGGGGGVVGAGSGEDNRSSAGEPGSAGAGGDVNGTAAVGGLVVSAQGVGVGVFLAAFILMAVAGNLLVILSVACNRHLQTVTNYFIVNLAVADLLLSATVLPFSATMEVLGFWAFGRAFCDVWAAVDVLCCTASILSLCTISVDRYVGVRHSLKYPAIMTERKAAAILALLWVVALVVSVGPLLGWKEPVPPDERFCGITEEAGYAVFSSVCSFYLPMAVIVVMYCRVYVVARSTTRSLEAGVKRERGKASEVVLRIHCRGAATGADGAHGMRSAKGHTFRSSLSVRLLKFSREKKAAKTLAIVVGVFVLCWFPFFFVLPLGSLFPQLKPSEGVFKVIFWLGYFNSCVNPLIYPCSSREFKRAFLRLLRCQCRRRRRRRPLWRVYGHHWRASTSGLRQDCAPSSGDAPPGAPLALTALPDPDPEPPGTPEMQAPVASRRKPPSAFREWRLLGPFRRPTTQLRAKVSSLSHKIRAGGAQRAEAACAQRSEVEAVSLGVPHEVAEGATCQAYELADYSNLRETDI
# Chain of Sodium-dependent serotonin transporter (P31645 whole entry, looked up): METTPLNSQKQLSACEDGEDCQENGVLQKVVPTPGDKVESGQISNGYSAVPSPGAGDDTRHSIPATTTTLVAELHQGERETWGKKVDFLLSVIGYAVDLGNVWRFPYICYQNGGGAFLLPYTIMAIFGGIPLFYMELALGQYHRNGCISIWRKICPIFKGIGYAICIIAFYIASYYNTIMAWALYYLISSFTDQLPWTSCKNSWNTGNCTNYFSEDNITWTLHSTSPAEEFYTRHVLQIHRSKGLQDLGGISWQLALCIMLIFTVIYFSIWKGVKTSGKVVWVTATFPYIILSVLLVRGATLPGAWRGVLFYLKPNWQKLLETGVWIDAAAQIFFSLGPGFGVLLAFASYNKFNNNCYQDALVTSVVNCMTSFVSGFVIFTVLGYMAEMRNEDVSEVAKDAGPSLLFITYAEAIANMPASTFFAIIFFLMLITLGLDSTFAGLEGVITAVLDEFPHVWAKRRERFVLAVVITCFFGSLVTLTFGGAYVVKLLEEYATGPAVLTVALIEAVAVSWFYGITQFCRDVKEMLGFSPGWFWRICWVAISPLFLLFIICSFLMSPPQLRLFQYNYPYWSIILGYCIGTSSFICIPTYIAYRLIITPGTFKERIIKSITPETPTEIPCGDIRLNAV
# Chain of D(1A) dopamine receptor (P21728 whole entry): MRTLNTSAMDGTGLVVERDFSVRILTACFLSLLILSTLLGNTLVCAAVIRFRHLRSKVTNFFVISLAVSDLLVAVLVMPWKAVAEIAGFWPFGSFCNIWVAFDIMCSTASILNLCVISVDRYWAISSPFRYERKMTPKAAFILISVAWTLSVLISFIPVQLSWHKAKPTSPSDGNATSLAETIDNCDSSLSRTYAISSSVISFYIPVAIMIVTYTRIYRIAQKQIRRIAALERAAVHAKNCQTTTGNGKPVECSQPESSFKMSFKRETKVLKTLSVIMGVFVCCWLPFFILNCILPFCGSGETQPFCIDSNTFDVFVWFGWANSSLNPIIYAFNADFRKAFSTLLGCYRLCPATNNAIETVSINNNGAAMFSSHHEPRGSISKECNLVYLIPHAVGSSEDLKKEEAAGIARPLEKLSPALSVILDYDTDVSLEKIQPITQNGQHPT
# Chain of Sigma non-opioid intracellular receptor 1 (Homo sapiens) (Q99720 whole entry): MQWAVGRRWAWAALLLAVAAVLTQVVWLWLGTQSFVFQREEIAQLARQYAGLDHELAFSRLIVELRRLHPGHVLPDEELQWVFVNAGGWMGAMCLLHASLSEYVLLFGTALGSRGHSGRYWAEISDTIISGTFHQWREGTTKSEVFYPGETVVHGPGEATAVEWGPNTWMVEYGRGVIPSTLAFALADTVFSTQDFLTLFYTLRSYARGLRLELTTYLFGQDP
smiles,measurement,setting,value
Cc1cn([C@@H](C)CC#N)c(=O)c2cc(Cn3nc(C(F)F)cc3Cl)nn12,inhibition,[1],15.5%
same,inhibition,[2],3.73%
same,inhibition,[3],-4.44%
same,inhibition,[4],-6.08%
same,inhibition,[5],19%
same,inhibition,[6],12%
same,inhibition,[7],1.85%
same,inhibition,[8],-8.09%
same,inhibition,Mu-type opioid receptor,-0.1%
same,inhibition,[9],-9.2%
same,inhibition,[10],0.68%
same,pKi,[11],< 5
same,Ki,[11]; read-out: Ki,> 10 µM
same,inhibition,[12],57.6%
same,inhibition,D(2) dopamine receptor,5.88%
same,inhibition,[13],-9.92%
same,IC50,[14],> 30 µM (not active)
same,EC50,[15],> 30 µM (not active)
same,inhibition,[16],15.8%
same,inhibition,[17],20.4%
same,inhibition,[18],27.7%
same,inhibition,[19],-5.71%
same,inhibition,[20],-5.75%
same,inhibition,[21],33.4%
same,inhibition,[22],-9.06%
same,inhibition,[23],-2.17%
same,inhibition,[24],-1.27%
same,inhibition,[25],1.81%
same,inhibition,Rattus norvegicus,21.3%
same,inhibition,D(1A) dopamine receptor,-0.9%
same,inhibition,[26],1.49%
same,inhibition,[27],-0.32%
same,inhibition,[28],22.6%
same,inhibition,[29],-0.27%
same,inhibition,[30],4.06%
same,inhibition,[31],-7.46%
same,inhibition,[32],-5.14%
same,inhibition,[33],-8.98%
same,inhibition,Histamine H2 receptor,7.11%
same,inhibition,[34],-6.45%
same,inhibition,Histamine H1 receptor,-2.74%

# Source: ChEMBL document CHEMBL5058641, “Data for DCP probe TP-050” (2022)
